Where “and” joins values, the source holds several entries; their conditions need not be identical. Equal values may be shown once.
Assays:
[1] = target: T1, GluN1/GluN2B-F114AzF receptors (Rattus norvegicus (GluN1-1a); Mus musculus (GluN2B), UniProt P35439+Q01097); details: 200 μM spermine, pH 6.5, without UV
Experimental: For all experiments, the standard external solutions contained: 100 mM NaCl, 300 mM BaCl2, and 5 mM HEPES, pH adjusted to 7.3 with KOH. […] Currents were recorded and measured at a holding potential of −60 mV at room temperature.
The measurements at 30 μM were corrected by multiply with a correcting value to remove the pore blocking effect at −60 mV[49]. Zinc was prepared at 100 mM ZnCl2 stock (in 1% HCl). In all zero-Zn^2+ control solutions, diethylenetriamine-pentaacetic acid (DTPA, 10 μM) was added to chelate trace Zn^2+ and other heavy metals[25]. […] Experiments with MK-801 were performed as described previously. MK-801 solutions (10–50 nM) were prepared by dilution of stock solution (50 μM) into agonist containing solution[4]. MK-801 time constants of inhibition (τon) were obtained by fitting currents with a single-exponential component to a time window corresponding to 10–90% of maximum inhibition. Each τon was then normalized to the mean τon of wt receptors measured the same day.

[2] = target: T1, GluN1/GluN2B-F114AzF receptors; experiment: UV-induced current potentiation in the presence of allosteric modulators, TEVC in oocytes; assay type: cell-based, rat GluN1-1a, mouse GluN2B; design: expressed in transfected cells; host or cells: Xenopus laevis oocytes co-injected with GluN1, GluN2B amber mutant, Yam suppressor tRNA and AzF-RS, incubated with 1 mM AzF
Excerpt: To evaluate whether AzF photo-activation in GluN2B produces functional changes, we applied a time-resolved assay[10] by combining online application of UV light and simultaneously recording of agonist-induced currents using TEVC. Current after UV illumination (Iuv) were compared to currents before UV illumination (Io) and yielded the relative current changes (Iuv/Io).
To understand how the NTD dimer interfacial contact influences allosteric modulation, we have quantified UV-induced potentiation in the presence of different modulators, including a GluN2B specific positive allosteric modulator spermine.
(§1) For all experiments, the standard external solutions contained: 100 mM NaCl, […] BaCl2, and 5 mM HEPES, pH adjusted to 7.3 with KOH. […] Currents were recorded and measured at a holding potential of −60 mV at room temperature.
(§2) The measurements at 30 μM were corrected by multiply with a correcting value to remove the pore blocking effect at −60 mV[49]. Zinc was prepared at 100 mM ZnCl2 stock (in 1% HCl). In all zero-Zn^2+ control solutions, diethylenetriamine-pentaacetic acid (DTPA, 10 μM) was added to chelate trace Zn^2+ and other heavy metals. Spermine potentiation was analyzed as described earlier. Solutions of 200 μM spermine (Sigma-Aldrich) were made by directly diluting the powder into the standard agonist solution. Spermine sensitivity was assessed at pH 6.5 in order to maximize the spermine-induced potentiation. Experiments with MK-801 were performed as described previously. MK-801 solutions (10–50 nM) were prepared by dilution of stock solution (50 μM) into agonist containing solution[4]. MK-801 time constants of inhibition (τon) were obtained by fitting currents with a single-exponential component to a time window corresponding to 10–90% of maximum inhibition. Each τon was then normalized to the mean τon of wt receptors measured the same day.
(§3) For all functional recordings in Xenopus oocytes, online UV light treatment with PE-2 light source (CoolLED) using a 365 nm filter channeled through optical fiber was directly applied to the dark hemisphere of the oocytes in the recording chamber. […] For measurements in presence of agonists and allosteric modulators, the UV application duration was ~3 min. In the absence of agonist, the UV application duration was ~5 min.

[3] = target: T2, wt GluN1/GluN2B receptors (UniProt P35439+Q01097); experiment: Ifenprodil and Zn2+ inhibition dose-response, TEVC in Xenopus laevis oocytes; assay type: cell-based, rat GluN1-1a, mouse GluN2B
T2 sequence (Q01097 27-1482, other chains not shown): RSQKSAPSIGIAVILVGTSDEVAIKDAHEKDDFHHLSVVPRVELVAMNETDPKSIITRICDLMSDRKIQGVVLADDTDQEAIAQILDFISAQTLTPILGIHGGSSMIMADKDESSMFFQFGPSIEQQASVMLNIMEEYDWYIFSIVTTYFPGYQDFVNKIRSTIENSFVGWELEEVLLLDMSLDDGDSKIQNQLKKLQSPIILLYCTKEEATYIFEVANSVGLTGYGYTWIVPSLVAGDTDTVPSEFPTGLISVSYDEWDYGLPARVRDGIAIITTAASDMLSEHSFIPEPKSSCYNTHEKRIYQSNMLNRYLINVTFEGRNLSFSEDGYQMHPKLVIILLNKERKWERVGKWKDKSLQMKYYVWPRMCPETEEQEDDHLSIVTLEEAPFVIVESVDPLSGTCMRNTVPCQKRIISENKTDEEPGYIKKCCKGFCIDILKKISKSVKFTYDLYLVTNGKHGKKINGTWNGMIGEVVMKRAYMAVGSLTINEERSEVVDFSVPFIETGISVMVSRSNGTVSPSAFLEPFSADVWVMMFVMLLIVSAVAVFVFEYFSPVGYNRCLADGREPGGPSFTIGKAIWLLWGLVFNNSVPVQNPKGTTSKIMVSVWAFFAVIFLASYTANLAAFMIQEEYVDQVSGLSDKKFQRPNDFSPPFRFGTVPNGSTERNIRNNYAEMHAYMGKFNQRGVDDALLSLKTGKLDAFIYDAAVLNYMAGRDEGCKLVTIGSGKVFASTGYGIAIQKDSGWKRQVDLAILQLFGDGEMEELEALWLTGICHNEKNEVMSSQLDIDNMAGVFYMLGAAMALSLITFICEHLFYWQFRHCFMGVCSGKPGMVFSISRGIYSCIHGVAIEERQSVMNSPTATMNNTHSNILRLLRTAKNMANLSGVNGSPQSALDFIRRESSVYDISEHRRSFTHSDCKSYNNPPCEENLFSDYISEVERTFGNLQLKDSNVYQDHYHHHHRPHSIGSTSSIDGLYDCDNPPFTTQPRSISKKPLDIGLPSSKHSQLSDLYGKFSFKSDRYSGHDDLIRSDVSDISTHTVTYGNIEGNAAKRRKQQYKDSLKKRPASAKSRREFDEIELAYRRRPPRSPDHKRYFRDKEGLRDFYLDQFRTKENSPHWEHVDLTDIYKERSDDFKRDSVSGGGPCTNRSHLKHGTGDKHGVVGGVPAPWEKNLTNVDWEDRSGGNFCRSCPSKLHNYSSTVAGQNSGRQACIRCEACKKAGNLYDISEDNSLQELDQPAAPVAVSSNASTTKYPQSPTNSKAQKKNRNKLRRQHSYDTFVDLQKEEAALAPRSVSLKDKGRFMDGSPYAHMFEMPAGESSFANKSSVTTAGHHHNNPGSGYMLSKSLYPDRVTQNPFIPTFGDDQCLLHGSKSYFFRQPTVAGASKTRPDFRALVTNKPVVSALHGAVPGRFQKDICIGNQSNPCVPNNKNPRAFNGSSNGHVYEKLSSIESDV
Experimental: (§4) Oocytes were prepared and injected as described previously. Recombinant NMDARs were expressed in Xenopus laevis oocytes after nuclear injection of 36 nl of a mixture cDNAs encoding various GluN1 and GluN2 subunits (ratio 1:1, 10 ng/μl for GluN2A and 30 ng/μl for GluN2B). For Uaa incorporation, oocytes were co-injected with a 36 nl mixture of cDNAs containing GluN1, GluN2, Yam, and aaRS as follows, unless otherwise indicated in the text: GluN1-wt (60 ng/μl), GluN2A-F115AzF (60 ng/μl), Yam (5 ng/μl), AzF-RS (2.5 ng/μl); or, GluN1-wt (80 ng/μl), GluN2B-F114AzF (80 ng/μl), Yam (10 ng/μl), AzF-RS (5 ng/μl). After injection, oocytes were incubated at 19 °C in a Barth solution (88 mM NaCl, 1 mM KCl, 0.33 mM Ca(NO3)2, 0.41 mM CaCl2, 0.82 mM MgSO4, 2.4 mM NaHCO3, 10 mM HEPES, pH adjusted to 7.6 with NaOH) supplemented with gentamicin sulfate ([…]) and D-APV (50 μM). AzF was dissolved with sonication in Barth solution (stock solution at 10 mM), and diluted (1 mM) for oocytes incubation.
as §1, §2, §3

[4] = target: T1, GluN1/GluN2B-F114AzF receptors; experiment: as above; assay type: cell-based; details: for IC50 / Zn2+ Hill coefficient nH: F114AzF mutant
Experimental: as §4, §1, §2, §3

[5] = target: T2, wt GluN1/GluN2B receptors; experiment: MK-801 inhibition kinetics (index of channel open probability), TEVC in oocytes; assay type: cell-based, rat GluN1-1a, mouse GluN2B; details: 50 nM MK-801, normalized to mean τon of wt
Experimental: (§5) To analyze the gating property change, we assessed channel maximal open probability (Po) using MK-801, a specific open-pore blocker of NMDARs[25]. Because the rate at which MK-801 inhibits the macroscopic NMDAR responses is proportional to the level of channel activity (i.e. Po), this MK-801 assay is classically used to index NMDAR channel activity.
as §1
as §2, with “MK-801 solutions (10–50 nM) were prepared by dilution of stock solution (50 μM) into agonist containing solution[4]. MK-801 time constants of inhibition (τon) were obtained by fitting currents with a single-exponential component to a time window corresponding to 10–90% of maximum inhibition.” left out, “day. […]” for “day.”

[6] = target: T1, GluN1/GluN2B-F114AzF receptors; experiment: as above; assay type: cell-based, rat GluN1-1a, mouse GluN2B; design: expressed in transfected cells; host or cells: Xenopus laevis oocytes co-injected with GluN1, GluN2B amber mutant, Yam suppressor tRNA and AzF-RS, incubated with 1 mM AzF; details: 50 nM MK-801, normalized to mean τon of wt
Experimental: as §5, §1
as §2, with “MK-801 solutions (10–50 nM) were prepared by dilution of stock solution (50 μM) into agonist containing solution[4]. MK-801 time constants of inhibition (τon) were obtained by fitting currents with a single-exponential component to a time window corresponding to 10–90% of maximum inhibition.” left out, “day. […]” for “day.”

[7] = target: wild-type GluN1 (rat) (UniProt P35439)

T1 sequence (Q01097 27-1482, other chains not shown): as above

NCCCNCCCCNCCCN [spermine]
Spermine potentiation of receptor activation [1]: 4.6 fold
Relative current (I+uv/I0) ([2]; 200 μM spermine, pH 6.5, +UV (~3 min, 365 nm)): 2.80 ± 0.64
Relative current (I/I0) ([2]; 200 μM spermine, pH 6.5, -UV): 0.85 ± 0.10
τon of UV induced additional potentiation ([2]; in the presence of 200 μM spermine, pH 6.5): 50.8 s

CC(C(O)c1ccc(O)cc1)N1CCC(Cc2ccccc2)CC1 (centres unmarked) [ifenprodil]
Ifenprodil Hill coefficient nH [3]: 1.14
Ifenprodil maximal inhibition [4]: 77% and 67%
Maximal inhibition (%) ([4]; 0.1 µM): 16 ± 3% and 9 ± 4 %
Maximal inhibition (%) ([4]; 1 µM): 54 ± 4% and 35 ± 4 %
Maximal inhibition (%) ([4]; 10 µM): 77 ± 3% and 55 ± 3 %
Effect on UV potentiation ([2]; in the presence of ifenprodil): completely abolished

C[C@]12N[C@H](Cc3ccccc31)c1ccccc12 [MK-801, (+)-MK-801]
Relative MK-801 τon ([5]; wild-type with UV): 0.90 ± 0.06
Relative MK-801 τon ([5]; wild-type without UV): 1.00
Relative MK-801 τon ([6]; F114AzF mutant with UV): 0.80 ± 0.07
Relative MK-801 τon ([6]; F114AzF mutant without UV): 1.81 ± 0.47

GluN2B-F114AzF (from UniProt Q01097 27-1482) (receptor)
relative current Iuv/Io after UV illumination of maximally activated receptors (TEVC in oocytes, UV-induced potentiation) [7]: 1.97

[Cl-].[Cl-].[Zn+2] [Zn^2+, ZnCl2]
IC50 ([3]; after UV): 720 ± 120 nM
Zn2+ Hill coefficient nH ([3]; after UV): 0.78
IC50 ([3]; before UV): 580 ± 130 nM
Zn2+ Hill coefficient nH ([3]; before UV): 0.59
Maximal inhibition (%) ([4]; 0.1uM inhibitor, +UV): 16 ± 7%
Maximal inhibition (%) ([4]; 0.1uM inhibitor, -UV): 25 ± 8%
Maximal inhibition (%) ([4]; 1uM inhibitor, +UV): 35 ± 4%
Maximal inhibition (%) ([4]; 1uM inhibitor, -UV): 49 ± 11%
Maximal inhibition (%) ([4]; 10uM inhibitor, +UV): 83 ± 1%
Maximal inhibition (%) ([4]; 10uM inhibitor, -UV): 87 ± 4%
Change in Zn2+ maximal inhibition ([4]; F114AzF mutant before and after UV versus wt): no change
IC50 ([4]; after UV): 1720 ± 600 nM
Zn2+ Hill coefficient nH ([4]; after UV): 0.77
IC50 ([4]; before UV): 780 ± 250 nM
Zn2+ Hill coefficient nH ([4]; before UV): 0.62
Relative current (I+uv/I0) after wash-off of modulator ([2]; 10 μM Zn2+ with co-agonists, +UV (~3 min, 365 nm)): 1.40 ± 0.43
Relative current (I/I0) after wash-off of modulator ([2]; 10 μM Zn2+ with co-agonists, -UV): 0.92 ± 0.29

From publication PMC5054432 (Scientific Reports, 2016)
